Laboratory results reported in EPA's ToxValDB 9.5 (doi:10.2903/j.efsa.2012.2945).
Values after ≈ are worked out from the molar mass of the structure shown.

Experiments:
[1] = test system: Rattus norvegicus
[2] = test system: Aphidius rhopalosiphi; assay: LR50; higher = less toxic; settings: acute; duration: 48 hours; mortality
[3] = test system: Typhlodromus pyri; assay: LR50; higher = less toxic; settings: acute; duration: 48 hours; mortality
[4] = test system: Pimephales promelas; settings: chronic/long-term; duration: 32 days; growth
[5] = test system: Tagia sp.; settings: acute; duration: 14 days; mortality
[6] = test system: Neomysis kadiakensis; settings: chronic/long-term; duration: 28 days; reproduction
[7] = test system: Cyprinus carpio; settings: acute; duration: 96 hours; mortality
[8] = test system: Apis mellifera; settings: acute; duration: 24 hours; oral; unspecified; mortality
[9] = test system: Mus musculus; settings: acute; oral; mortality
[10] = test system: Colinus virginianus; settings: acute, oral, mortality
[11] = test system: Daphnia magna; settings: chronic/long-term; duration: 21 days; mortality
[12] = test system: Anas platyrhynchos; settings: oral, mortality

SMILES | NOAEL ([1]; developmental, development) | LR50 [2] | LR50 [3] | NOEC [4] | LC50 [5] | NOEC [6] | LC50 [7] | LD50 [8] | LD50 [9] | LC50 ([10]; diet) | LD50 [10] | NOEC [11] | LD50 ([12]; acute, unspecified) | LC50 ([12]; short-term, feed) | NOAEL ([1]; chronic, duration: 2 years) | NOAEL ([1]; reproduction developmental, reproduction) | NOAEL ([1]; subchronic, duration: 90 days, oral)
O=c1ccc(C(F)(F)F)c[nH]1 [5-(Trifluoromethyl)pyridin-2(1H)-one] | 60 mg/kg-day |  |  |  |  |  |  |  |  |  |  |  |  |  |  |  | 
CCCCOC(=O)[C@@H](C)Oc1ccc(Oc2ccc(C(F)(F)F)cn2)cc1 [Fluazifop-P-butyl] | 2 mg/kg-day | 177 g/ha | 5.6 g/ha | 0.077 mg/L | > 1000 mg/kg | 0.0477 mg/L | 1.31 µg/mL (≈ 3.42 µM) | > 200 µg/piece | > 2000 mg/kg-day | > 1070 mg/kg-day | > 2000 mg/kg-day | 0.25 mg/L | > 3960 mg/kg-day | > 942 mg/kg-day | 1 mg/kg-day | 6.72 mg/kg-day | 0.9 mg/kg-day
CC(Oc1ccc(Oc2ccc(C(F)(F)F)cn2)cc1)C(=O)O (centres undefined) [Fluazifop] |  |  |  |  |  |  |  |  |  |  |  |  |  |  | 1 mg/kg-day |  | 
